Laboratory results reported in patent publication US9573939B2, “Substituted benzofuran compounds and methods of use thereof for the treatment of viral diseases” (priority 2011, dated 2017).
pIC50: −log10 of the molar value.

Key:
HCV replicon genotype 1a = test: microbe, parasite or virus in culture; assay type: cell-based; conditions: Hepatitis C virus; HCV genotype 1a replicon cells; 96 hours incubation; replicon-encoded NS3/4A protein by ELISA; percentage of DMSO control
HCV replicon genotype 1b = test: microbe, parasite or virus in culture; assay type: cell-based; conditions: Hepatitis C virus; HCV genotype 1b replicon cells; 96 hours incubation; replicon-encoded NS3/4A protein by ELISA; percentage of DMSO control

Row | Compound | pIC50 (HCV replicon genotype 1a) | pIC50 (HCV replicon genotype 1b)
1 | CNC(=O)c1c(-c2ccc(F)cc2)oc2cc(N(C)S(C)(=O)=O)c(-c3ccc4c(c3)ncn4-c3cccnc3)cc12 [Compound 23] | 7.62 | –
2 | CNC(=O)c1c(-c2ccc(F)cc2)oc2cc(N(C)S(C)(=O)=O)c(-c3ccc4cnn(-c5ccc(Cl)cc5)c4c3)cc12 [Compound 52] | 8.22 | 8.16
3 | CNC(=O)c1c(-c2ccc(F)cc2)oc2cc(N(C)S(C)(=O)=O)c(-c3ccc4c(c3)ncn4-c3ccccc3)cc12 [Compound 22] | 7.60 | 8.54
4 | CNC(=O)c1c(-c2ccc(F)cc2)oc2cc(N(C)S(C)(=O)=O)c(-c3ccc4ncn(-c5ccc(F)cc5)c4c3)cc12 [Compound 15] | 6.47 | 7.69
5 | CNC(=O)c1c(-c2ccc(F)cc2)oc2cc(N(C)S(C)(=O)=O)c(-c3ncc4ncn(-c5ccc(C#N)cc5)c4n3)cc12 [Compound 32] | < 6.00 | –
6 | CNC(=O)c1c(-c2ccc(F)cc2)oc2cc(N(C)S(C)(=O)=O)c(-c3ccc4ncn(CCO)c4c3)cc12 [Compound 28] | 6.12 | 7.12
7 | CNC(=O)c1c(-c2ccc(F)cc2)oc2cc(N(C)S(C)(=O)=O)c(-c3ncc4ncn(-c5ccc(OC(F)(F)F)cc5)c4n3)cc12 [Compound 29, 2-(4-fluorophenyl)-N-methyl-6-(N-methylmethylsulfonamido)-5-(9-(4-(trifluoromethoxy)phenyl)-9H-purin-2-yl)benzofuran-3-carboxamide] | < 6.00 | –
8 | CNC(=O)c1c(-c2ccc(F)cc2)oc2cc(N(C)S(C)(=O)=O)c(-c3ccc4[nH]c(-c5ccccc5)cc4c3)cc12 [Compound 39] | < 6.00 | –
